Data taken from PubChem BioAssay AID1645862 (Buhrlage Lab, Dana-Farber Cancer Institute and Novartis …, 2021).
Active and inactive are the calls of the source. The rule behind the calls is not given here.

Target: Ubiquitin carboxyl-terminal hydrolase 8 (Homo sapiens) (UniProt P40818)
Assay: Ubiquitin-specific protease 8 inhibitors, concentration-effect, biochemical, validation of initial actives (AID 1645862);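 note: potency reflects inhibition of USP8 cleavage of a ubiquitin rhodamine substrate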
Details: recombinant USP8 deubiquitinase activity assay

Chain of Ubiquitin carboxyl-terminal hydrolase 8 (Homo sapiens) (P40818 whole entry, looked up): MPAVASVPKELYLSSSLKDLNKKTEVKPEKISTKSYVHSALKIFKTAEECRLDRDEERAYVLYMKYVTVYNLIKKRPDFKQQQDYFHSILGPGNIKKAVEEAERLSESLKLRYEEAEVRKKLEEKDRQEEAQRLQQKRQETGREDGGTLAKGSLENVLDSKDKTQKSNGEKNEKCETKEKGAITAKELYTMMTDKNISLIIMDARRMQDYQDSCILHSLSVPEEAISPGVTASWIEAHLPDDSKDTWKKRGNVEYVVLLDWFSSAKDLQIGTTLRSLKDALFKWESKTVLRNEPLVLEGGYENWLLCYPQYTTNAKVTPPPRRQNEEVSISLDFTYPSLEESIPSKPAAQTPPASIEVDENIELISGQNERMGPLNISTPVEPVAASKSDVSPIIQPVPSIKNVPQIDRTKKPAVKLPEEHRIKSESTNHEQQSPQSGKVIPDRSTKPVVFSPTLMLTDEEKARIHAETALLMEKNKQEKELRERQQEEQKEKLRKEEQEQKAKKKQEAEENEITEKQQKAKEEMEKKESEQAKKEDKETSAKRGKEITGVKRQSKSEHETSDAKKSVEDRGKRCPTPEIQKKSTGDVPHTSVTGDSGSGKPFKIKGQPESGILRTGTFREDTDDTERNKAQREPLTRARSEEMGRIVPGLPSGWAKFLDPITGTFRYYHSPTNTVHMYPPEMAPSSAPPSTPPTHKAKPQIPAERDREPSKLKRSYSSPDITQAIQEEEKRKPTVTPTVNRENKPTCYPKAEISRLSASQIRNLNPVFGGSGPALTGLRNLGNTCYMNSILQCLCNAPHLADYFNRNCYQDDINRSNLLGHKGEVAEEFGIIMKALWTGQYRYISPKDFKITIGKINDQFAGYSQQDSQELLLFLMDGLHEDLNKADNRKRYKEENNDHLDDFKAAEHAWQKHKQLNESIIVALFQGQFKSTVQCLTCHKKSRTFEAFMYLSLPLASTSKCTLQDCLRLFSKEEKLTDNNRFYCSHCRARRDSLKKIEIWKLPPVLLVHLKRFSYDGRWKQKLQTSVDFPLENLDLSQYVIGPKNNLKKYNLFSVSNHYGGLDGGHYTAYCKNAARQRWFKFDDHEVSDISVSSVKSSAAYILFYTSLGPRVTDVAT

Structure (SMILES)	IC50
C=C/C(=C/C(=O)C[C@H](C)C[C@@H](C)CC[C@H](O)[C@H](C)C(=O)CC(O)[C@H](C)[C@@H](C)OC(=O)C[C@@H](O)C1=C(C)C(=O)OC1=O)CC (stereo not given in full)	2.6 µM
COc1cccc(-c2cc(C(=O)Nc3cc(C)n(Cc4ccc(Cl)cc4)n3)no2)c1	> 40 µM (inactive)
CC(=O)[C@H]1c2c(c(O)c3c(O)cccc3c2-c2c3c(c(O)c4c(O)cccc24)C(=O)C[C@](C)(O)[C@H]3C(C)=O)C(=O)C[C@]1(C)O	24.5 µM
CSc1cccc(NC(=O)C2C3C=CC4(O3)C2C(=O)N(CCc2ccccc2)C4C(=O)NC2CCCCC2)c1 (stereo not given)	> 40 µM (inactive)
CSc1nc(NCc2ccccc2)c2sc3nc(N4CCOCC4)c4c(c3c2n1)CC(C)(C)OC4	> 40 µM (inactive)
COC(=O)c1ccc(C2c3[nH]c4ccccc4c3C[C@@H]3C(=O)N(c4ccc5c(c4)OCCO5)C(=O)N23)cc1 (stereo not given in full)	> 40 µM (inactive)
CCCCNC(=O)C1Sc2nnc(-c3ccccc3)n2NC1c1ccccc1 (stereo not given)	> 40 µM (inactive)
Cc1ccc(NC(=O)Nc2ccc(C)n(CC(=O)Nc3cccc(C)c3)c2=O)cc1	> 40 µM (inactive)
CCOc1ccc2c(c1)c(=O)c(C(=O)c1ccc(C)cc1)cn2CC(=O)Nc1ccc(OC)c(OC)c1	> 40 µM (inactive)
CCc1ccc(-n2cc(OC(C)=O)c3c2nc(C)n2c4ccccc4nc32)cc1	> 40 µM (inactive)
O=C(NC1(O)C(=O)c2ccccc2C1=O)c1cccc2c1-c1ccccc1C2=O	6.52 µM
O=C(COc1ccc(N2CC(C(=O)NCc3ccc4c(c3)OCO4)CC2=O)cc1)Nc1ccc(F)cc1 (stereo not given)	> 40 µM (inactive)
CCc1ccc(NC(=O)Cc2nnc3cc(-c4nc(C)no4)ccn23)cc1	19.6 µM
CCCC[C@@H](C)/C=C(C)/C=C(\C)C(=O)NC1=C[C@](O)(/C=C/C=C/C=C/C(=O)NC2=C(O)CCC2=O)[C@@H]2O[C@@H]2C1=O	> 40 µM (inactive)
CS(=O)(=O)NC1CCCN(C(=O)Nc2cccc3ccccc23)C1 (stereo not given)	> 40 µM (inactive)
O=C(CCn1c(=O)c2ccccc2n(Cc2ccccc2F)c1=O)NCc1ccco1	> 40 µM (inactive)
CSc1ncccc1C(=O)NC1(O)C(=O)c2ccccc2C1=O	5.16 µM
CCN(Cc1ccccc1)C(=O)C1CCN(Cc2ccc(OC)c(OC)c2OC)CC1	> 40 µM (inactive)
COc1cc2c(=O)n(CCC(=O)NC3CCCC3)c(=O)n(CC(=O)Nc3cccc(Cl)c3)c2cc1OC	> 40 µM (inactive)
O=C(Oc1ccc2cc(Br)ccc2c1)c1ccncc1	> 40 µM (inactive)
COc1ccc(-c2nc(-c3nnn(Cc4ccc(F)cc4)c3C)no2)c(OC)c1	> 40 µM (inactive)
CC1OC2CC(O)C1(O)C1=C2C(O)=C(C(N)=O)C(=N)C1=O (stereo not given)	1.56 µM
O=C(Nc1ccncc1)c1cn(Cc2ccccc2)cc2c(=O)n(-c3ccccc3)nc1-2	> 40 µM (inactive)

Structure (SMILES)	IC50
CCc1ccc(CN(C)C(=O)c2ccc(NS(=O)(=O)c3ccc(F)c(F)c3)cc2)cc1	> 40 µM (inactive)
O=C(Nc1ccccc1C(F)(F)F)c1cccc(S(=O)(=O)Nc2cc(C(F)(F)F)ccc2Cl)c1	> 40 µM (inactive)
COc1ccccc1C(=O)N1CCC[C@H](Cn2nnc(-c3cccnc3)n2)C1	> 40 µM (inactive)
Cn1c(=O)c2ncnnc2n(C)c1=O	0.717 µM
CCn1c(SCC(=O)Nc2ccc(C)c(Cl)c2)nnc1-c1ccc2c(c1)OCCO2	> 40 µM (inactive)
COc1ccccc1CNC(=O)CCCCn1c(=O)c2ccccc2n(CC(=O)Nc2ccc(C)cc2C)c1=O	> 40 µM (inactive)
O=C(O)c1ccccc1C(=O)Nc1ccc(SC(C(=O)Nc2ccccc2Cl)c2ccccc2)cc1 (stereo not given)	> 40 µM (inactive)
Cc1ccc(Cn2c(=O)c3ncccc3n(CC(=O)NCc3ccc(F)cc3)c2=O)cc1	> 40 µM (inactive)
COc1cccc(NC(=O)c2cnc(N3CCCC3)nc2C)c1	> 40 µM (inactive)
Cc1ccc(-n2c(=O)c3ccc(C(=O)NCc4ccco4)cc3n(CC(=O)NCCC3=CCCCC3)c2=O)cc1	> 40 µM (inactive)
Cc1cccc(NC(=O)Nc2nnc(CC(=O)NCc3ccccc3)s2)c1	> 40 µM (inactive)
COc1ccccc1-c1nc(-c2cn(-c3ccc(F)cc3)nn2)no1	27.8 µM
Cc1cccc(C)c1NC(=O)COc1ccccc1-c1nnc(-c2ccccc2)o1	> 40 µM (inactive)
O=c1c2[nH]c3ccccc3c2ncn1CCC1=CCCCC1	> 40 µM (inactive)
COc1ccc(-c2nc(NCCCN3CCOCC3)c3ccccc3n2)cc1	> 40 µM (inactive)
O=C(COc1ncnc2sc3c(c12)CCCC3)Nc1ccc2c(c1)OCO2	> 40 µM (inactive)
Cc1nc2c(c(C)c1CCC(=O)Nc1ccccc1F)c(=O)n(C)c(=O)n2C	> 40 µM (inactive)
Cc1ccc2c(c1)c(=O)c(C(=O)c1ccccc1)cn2CC(=O)Nc1ccc2c(c1)OCCO2	> 40 µM (inactive)
Cc1ccc2c(c1)c(=O)c(C(=O)c1ccccc1)cn2CC(=O)Nc1ccccc1	27.5 µM
Cc1nnc(-c2ccc3ccn(CC(=O)N4CCN(c5ccccc5)CC4)c3c2)o1	> 40 µM (inactive)
Cc1c(C(=O)Nc2ccc(Oc3ccccc3)cc2)nnn1-c1cccc(Cl)c1	> 40 µM (inactive)
O=C(NCC1(c2ccccc2)CCC1)c1nc2n(n1)-c1ccccc1S(=O)(=O)N2	> 40 µM (inactive)
Cn1cc(NC(=O)Nc2cccc(C(F)(F)F)c2)c2ccccc2c1=O	9.33 µM

Structure (SMILES)	IC50
Cc1c(C)n(-c2ccccc2)c2ncn(CC(=O)NCc3cccc(F)c3)c(=O)c12	> 40 µM (inactive)
O=C(Nc1ccc(-c2cn3ccsc3n2)cc1)c1ccc(Cl)c([N+](=O)[O-])c1	21.4 µM
COc1cn(-c2ccc(F)cc2)nc1C(=O)Nc1ccc(Cl)cc1Cl	15.1 µM
Cc1csc(NC(=O)c2c[nH]c3ccc(F)cc3c2=O)n1	> 40 µM (inactive)
Cc1cc(Nc2ccc(C(=O)NCc3ccco3)cc2)n2nc(-c3cccnc3)nc2n1	> 40 µM (inactive)
COc1ccccc1CNC(=O)CCCCn1c(=O)c2ccccc2n(Cc2ccc(C)cc2)c1=O	> 40 µM (inactive)
O=C(Nc1ccccc1-c1nc2ccccc2[nH]1)c1sc2ccccc2c1Cl	10.5 µM
CCC(=O)Nc1nc2cc(NC(=O)Nc3ccccc3Cl)ccc2s1	> 40 µM (inactive)
O=C(COc1cccc(-c2noc(-c3ccc([N+](=O)[O-])cc3)n2)c1)Nc1ccccc1	> 40 µM (inactive)
Cc1c(-c2nn3c(-c4ccco4)nnc3s2)cccc1[N+](=O)[O-]	> 40 µM (inactive)
Cc1cc(C(=O)N2CCOCC2)c(C)n1-c1ccc(O)cc1	22.8 µM
COc1ccc(OC)c(NC(=O)Cn2c(=O)n(CC3CCC(C(=O)NCCc4ccccc4)CC3)c(=O)c3ccccc32)c1 (stereo not given)	> 40 µM (inactive)
CC(C)Cc1ccc(-c2cc(-c3ccc(C(F)(F)F)cc3)c(C#N)c(=O)[nH]2)cc1	> 40 µM (inactive)
O=C(Cn1c(-c2nc(-c3cccc(F)c3)no2)cccc1=O)NCc1ccco1	> 40 µM (inactive)
O=C(CCCn1c(=O)c2cc(Cl)ccc2n(CC(=O)Nc2cccc(F)c2)c1=O)NCc1ccco1	> 40 µM (inactive)
COc1ccccc1C(=O)Nc1ccc(Oc2ncnc3sc(-c4ccccc4)cc23)cc1	> 40 µM (inactive)
CCOC(=O)N1CCN(C(=O)c2ccc(NCc3ccc(F)cc3)c(S(=O)(=O)Nc3cccc(C(F)(F)F)c3)c2)CC1	> 40 µM (inactive)
Cc1c(NC(=O)/C=C/c2cccc(Cl)c2Cl)cccc1-n1cnnn1	> 40 µM (inactive)
COC(=O)c1ccccc1NC(=O)C1CCCN(c2nnc(-n3cccc3)s2)C1 (stereo not given)	> 40 µM (inactive)
NC(=O)c1nc(-c2cccnc2)nc2c1[nH]c(=O)n2-c1ccc2c(c1)OCO2	> 40 µM (inactive)
Cc1ccc(C(=O)Nc2ccc3c(c2)Sc2ncccc2C(=O)N3C(C)C)cc1C	> 40 µM (inactive)
CC(=O)Nc1ccc(C(=O)/C=C2\NCCc3cc4c(cc32)OCCCO4)cc1	> 40 µM (inactive)
COc1ccc(NC(=O)Cn2c(=O)n(CCCC(=O)NCCc3ccc(OC)c(OC)c3)c(=O)c3ccccc32)cc1Cl	> 40 µM (inactive)

Structure (SMILES)	IC50
O=C(/C=C/c1cccc([N+](=O)[O-])c1)N1CCc2ccccc21	> 40 µM (inactive)
COc1ccc(-c2noc(CC(=O)Nc3cccc(OC)c3)n2)cc1	> 40 µM (inactive)
Cc1nc(C(=O)NC2(O)C(=O)c3ccccc3C2=O)cs1	4.23 µM
N#C/C(=C\c1ccc(OCc2cccc(C(=O)O)c2)cc1)c1ccc(F)cc1	> 40 µM (inactive)
O=C(NCc1ccc2c(c1)OCO2)c1cn(-c2cccc(Cl)c2)nn1	> 40 µM (inactive)
N#Cc1c(-c2ccc(Cl)cc2)cc(-c2cccc(Br)c2)[nH]c1=O	25.5 µM
CCOc1ccc(CC(=O)Nc2ccc(-c3cn4cccnc4n3)cc2)cc1	> 40 µM (inactive)
O=C(COc1ccc(N2CC(C(=O)NCc3ccccc3)CC2=O)cc1)Nc1ccccc1Cl (stereo not given)	> 40 µM (inactive)
Cc1cccc(-n2ccnc(SCC(=O)Nc3ccc(Cl)cc3F)c2=O)c1	> 40 µM (inactive)
C=C/C(C)=C/[C@@]1(C)SC(=O)C(C)=C1O	14.5 µM
CCc1cccc(C)c1NC(=O)Cn1nc2ccc(C(=O)NCc3ccccc3)cn2c1=O	> 40 µM (inactive)
Cc1ccc(Cn2cc(-c3noc(C(=O)Nc4cc(F)ccc4F)n3)nn2)cc1	21.8 µM
O=C(Nc1ccccc1)Nc1ccc(F)c(-c2nnc(-c3ccccc3)o2)c1	> 40 µM (inactive)
Cc1ccnc(Nc2nc(-c3ccccc3)c3cc(Cl)ccc3n2)n1	> 40 µM (inactive)
Cc1ccc(N2CC(c3nnc(NC(=O)CCc4ccccc4)s3)CC2=O)cc1 (stereo not given)	> 40 µM (inactive)
Oc1cccc2c(-c3ccc(O)c4c(O)cccc34)ccc(O)c12	> 40 µM (inactive)
CN1CCC(N2CCN(C(=O)C3CCCN(c4cnc5nccnc5c4)C3)CC2)CC1 (stereo not given)	> 40 µM (inactive)
O=C(NC1CCCCCC1)c1cccc(S(=O)(=O)Nc2cc(C(F)(F)F)ccc2Cl)c1	> 40 µM (inactive)
COc1cc(/C=C/C(=O)OCC(=O)Nc2ccc([N+](=O)[O-])cc2OC)ccc1O	26.3 µM
COc1cccc2cc(C(=O)Nc3nc(-c4ccncc4)cs3)oc12	19.9 µM
Cc1ccc(-c2n[nH]n3c2nc(=O)c2ccc(C(=O)NC4CCCCC4)cc23)cc1	> 40 µM (inactive)
